Laboratory results taken from patent US20250188062A1, “TRIAZINE COMPOUNDS AND METHODS OF MAKING AND USING THE SAME” (Athos Therapeutics, Inc., priority 2021, published 2025).

Experiments:
THP-1 human monocytes = assay: Cellular assay for anti-inflammatory properties: cytokine ELISA multiplex in LPS-stimulated PMA-differentiated THP-1 macrophages; assay type: cell-based; details: 1 μM, 4 hours before 100 ng/mL LPS for 4 or 24 hours; cytokine protein in media vs LPS+PMA only
Experimental: The anti-inflammatory properties of five JMJD3 inhibitors (99, 92, 93, 98, and 95, in no particularly order) were evaluated in an immune cellular assay targeting key pro-inflammatory cytokines involved in the pathogenesis of multiple autoimmune disease.
Specifically, THP-1 human monocytes were grown in 6-well plates (RPMI 1640+10% FBS+1% P/S). After washing with PBS the THP-1 cells were differentiated into macrophages using 20 nM of phorbol 12-myristate 13-acetate (PMA) for 24 hrs. 99, 92, 93, 98, and 95) (1 μM) were added into the macrophages, which are incubated for 4 hours before the addition of 100 ng/mL lipopolysaccharide (LPS) for either 4 or 24 hours. Next, the macrophages are collected via centrifugation at 1.2K rpm for 5 min and use their media to evaluate cytokine protein levels by using the Bio-rad Cytokine ELISA multiplex assay (cat. No M5000031YV). The supernatants from macrophages treated only with only LPS+PMA were collected and used as negative controls.

Naïve CD4+ T human cells = assay: Cellular assay for FoxP3 induction activity (qPCR of FoxP3 mRNA); assay type: cell-based; details: CD4+ T cells activated with anti-CD3, IL-2 and TGF-β for 5 days; FoxP3 mRNA by qPCR on day 5; FIG. 3
Experimental: CD4+CD25+FOXP3+ regulatory T cells (Tregs) suppress pro-inflammatory cells and signals and are critical mediators of tolerance, inhibiting excessive inflammation and autoimmunity. Also, treatment of CD4+ T cells with interleukin 2 (IL-2) and transforming growth factor beta (TGF-β) signaling are important for FOXP3 induction and Treg formation.
Naïve CD4+ T human cells (cat. no 2W-200, Lonza) were cultured and activated with artificial antigen-presenting cells and soluble anti-CD3 (100 ng/ml) in the presence of IL-2 (300 U/ml) and TGF-β (10 ng/ml) for 5 days. On day 3, cells were transfected with an anti-sense RNA against JMJD3 (cat. No 1299001, Thermo) using Lipofectamine 2000 (cat. No 11668027, Thermo). On day 5, RNA was extracted and qPCR analysis was performed to evaluate FoxP3 mRNA levels by using the following primers: F: 5′-TCCACAACATGCGACCCCCTTTCA-3′ and R: 5′-ACAGCCCCCTTCTCGCTCTCCA-3′ having a 217 bp product. All JMJD3 inhibitors (99, 92, 93, 98, and 95) in CD4+ T cells induced 7-fold FoxP3 expression levels, thus moving towards differentiation and formation of Tregs. […] Thus, genetic or pharmacological inhibition of […] will result into FoxP3 activation and induction of Treg formation. Based on this evidence, JMJD3 inhibitors (99, 92, 93, 98, and 95)) could be used in autoimmune diseases where T-regulatory cells have therapeutic potential. There is increasing evidence and literature derived from human clinical studies (Arellano B et al., Regulatory T Cell-based Therapies for Autoimmunity, Discov Med, 22:73-80, 2016).

JMJD3 = JMJD3 (Homo sapiens, UniProt O15054); assay: JMJD3 binding assay (Kd, affinity beads, qPCR readout); details: 11-point 3-fold dilution series, 0.9% DMSO, room temperature 1 hour; read-out: JMJD3 Affinity (binding constant, Kd)
Experimental: Test compounds were prepared as 111X stocks in 100% DMSO. Kd values are determined using an 11-point 3-fold compound dilution series with three DMSO control points. All compounds for Kd measurements were distributed by acoustic transfer (non-contact dispensing) in 100% DMSO. The compounds were then diluted directly into the assays such that the final concentration of DMSO was 0.9%. All reactions were performed in polypropylene 384-well plate. Each was a final volume of 0.02 ml. The assay plates were incubated at room temperature with shaking for 1 hour and the affinity beads were washed with wash buffer (lx PBS, 0.05% Tween 20). The beads were then re-suspended in elution buffer (lx PBS, 0.05% Tween 20, 0.5 μM non-biotinylated affinity ligand) and incubated at room temperature with shaking for 30 minutes. The kinase concentration in the eluates was measured by qPCR. Binding constants are calculated with a standard dose-response curve using the Hill equation:
The Hill Slope was set to −1. Curves were fitted using a non-linear least square fit with the Levenberg-Marquardt algorithm. The binding data is summarized in Table 2 where A is less than 100 nM, B is 100 to 500 nM, and C is greater than 500 nM.

[1] = Stability under acidic LCMS condition; assay type: physicochemical; details: 0.1% formic acid mobile phase; hydrolyzed —OH product found
Experimental: All reactions were carried out under an atmosphere of argon. Reagents and solvents were used from commercial sources without additional purification. Hydrogenation reactions were run under a balloon. Microwave reactions were performed using a CEM Discover SP microwave synthesizer. Sample purification was conducted on a Buchi Pureflash with ELSD purification system using pre-packed commercially available silica gel columns. Thin layer chromatography (TLC) was performed on aluminium plates using Merck Kiesegel 60 F254 (230-400 mesh) fluorescent treated silica which were visualized under ultraviolet light (254 nm), or by staining with potassium permanganate or ninhydrin solution as appropriate. All Nuclear Magnetic Resonance (NMR) spectra were acquired on a Bruker Avance III HD 400 MHz NMR spectrometer; chemical shifts are reported in ppm (δ). […] All compounds purity was analyzed on Agilent 1260 Infinity II Lab LC Series HPLC (1260 Quatpum, 1260 vial autosampler, ICC column oven, 1260 DAD WR detector). […] All compounds that were evaluated in biological assay had >90% and animal study had >95% purity. […]

JMJD3, sequence (O15054 whole entry, species assumed): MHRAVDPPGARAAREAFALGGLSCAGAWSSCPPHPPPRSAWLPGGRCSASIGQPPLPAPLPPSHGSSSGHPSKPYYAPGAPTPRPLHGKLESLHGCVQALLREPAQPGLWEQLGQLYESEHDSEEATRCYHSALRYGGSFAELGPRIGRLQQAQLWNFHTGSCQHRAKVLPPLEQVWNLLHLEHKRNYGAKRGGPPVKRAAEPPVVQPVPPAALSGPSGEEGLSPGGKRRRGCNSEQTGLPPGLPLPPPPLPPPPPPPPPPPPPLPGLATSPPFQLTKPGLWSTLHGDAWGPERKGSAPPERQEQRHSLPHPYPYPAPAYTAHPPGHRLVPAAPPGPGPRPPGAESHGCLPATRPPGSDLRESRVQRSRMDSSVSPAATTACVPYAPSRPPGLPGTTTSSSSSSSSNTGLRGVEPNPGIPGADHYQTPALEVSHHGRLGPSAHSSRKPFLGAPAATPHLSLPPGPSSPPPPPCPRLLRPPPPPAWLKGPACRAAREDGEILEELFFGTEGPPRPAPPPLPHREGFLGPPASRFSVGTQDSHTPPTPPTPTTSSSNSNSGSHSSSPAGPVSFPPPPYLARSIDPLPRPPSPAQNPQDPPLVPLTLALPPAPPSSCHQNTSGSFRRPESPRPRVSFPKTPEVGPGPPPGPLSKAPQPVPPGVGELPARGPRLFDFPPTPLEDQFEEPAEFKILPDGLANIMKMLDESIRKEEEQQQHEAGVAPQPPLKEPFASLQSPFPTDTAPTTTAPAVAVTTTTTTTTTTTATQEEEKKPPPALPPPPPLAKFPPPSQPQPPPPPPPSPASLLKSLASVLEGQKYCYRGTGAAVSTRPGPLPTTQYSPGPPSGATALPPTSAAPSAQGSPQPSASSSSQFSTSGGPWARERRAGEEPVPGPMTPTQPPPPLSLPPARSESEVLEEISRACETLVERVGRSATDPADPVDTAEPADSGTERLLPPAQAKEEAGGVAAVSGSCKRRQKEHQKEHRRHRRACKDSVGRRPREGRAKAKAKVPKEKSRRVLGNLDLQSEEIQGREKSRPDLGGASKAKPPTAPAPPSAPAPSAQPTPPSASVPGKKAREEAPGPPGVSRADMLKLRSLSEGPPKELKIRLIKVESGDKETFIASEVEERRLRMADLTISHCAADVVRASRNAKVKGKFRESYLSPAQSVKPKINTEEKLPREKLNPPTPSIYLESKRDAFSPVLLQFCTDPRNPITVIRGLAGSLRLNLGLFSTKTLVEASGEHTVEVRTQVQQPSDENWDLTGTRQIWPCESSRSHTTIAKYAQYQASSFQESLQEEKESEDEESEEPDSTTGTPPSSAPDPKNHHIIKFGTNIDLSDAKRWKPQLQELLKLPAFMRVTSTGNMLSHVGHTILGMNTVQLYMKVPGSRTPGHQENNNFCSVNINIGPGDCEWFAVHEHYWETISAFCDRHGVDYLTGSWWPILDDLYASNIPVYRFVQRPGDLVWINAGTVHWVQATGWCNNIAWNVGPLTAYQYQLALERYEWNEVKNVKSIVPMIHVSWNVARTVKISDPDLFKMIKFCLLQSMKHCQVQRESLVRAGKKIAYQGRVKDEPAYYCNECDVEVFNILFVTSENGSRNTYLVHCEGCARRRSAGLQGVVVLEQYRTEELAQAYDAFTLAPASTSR

SMILES: c1ccc2c(c1)ccn2-c1nc(OC2CCCC2)nc(-n2cccn2)n1 [Compound 95, 1-(4-(Cyclopentyloxy)-6-(1H-pyrazol-1-yl)-1,3,5-triazin-2-yl)-1H-indole]
- suppression of TNF-alpha (TNFA) (THP-1 human monocytes): suppression
- suppression of interleukin 1beta (IL1B) (THP-1 human monocytes): suppression
- suppression of interleukin 5 (IL5) (THP-1 human monocytes): suppression
- suppression of interleukin 6 (IL6) (THP-1 human monocytes): suppression
- suppression of interleukin 8 (IL8) (THP-1 human monocytes): suppression
- suppression of interleukin 13 (IL13) (THP-1 human monocytes): suppression
- FoxP3 expression levels (induction) (Naïve CD4+ T human cells): 7 fold
- Kd (JMJD3): < 100 nM
- stability under acidic LCMS condition [1]: unstable
